Reference: PubChem BioAssay AID260 (DTP/NCI, 2004)
Several values for one entry are separate records, joined by “and”; a condition that tells them apart may be missing. Identical values can stand only once. Toxic doses and inconclusive results are not listed.

Test system: CD2F1 mice, intracerebral L1210 leukemia, survival T/C
Assay: NCI In Vivo Anticancer Drug Screen. Data for tumor model L1210 Leukemia (intracerebral) in CD2F1 (CDF1) mice
Conditions: higher = longer survival
Method: The antitumor activity of compounds was measured in mice bearing transplantable tumors. Survival or tumor size were measured and the results are expressed as the measurement made in the treated group (T) divided by the measurement made in the vehicle treated control group (C). The tumor model used in this assay is L1210 Leukemia (intracerebral) in CD2F1 (CDF1) mice

[1] = endpoint: median survival time, dose: 32.0 mg/kg/injection, schedule: Q01DX005 (ip), vehicle: saline with Tween-80
[2] = endpoint: median survival time, dose: 64.0 mg/kg/injection, schedule: Q01DX005 (ip), vehicle: saline with Tween-80
[3] = endpoint: median survival time, dose: 128.0 mg/kg/injection, schedule: Q01DX005 (ip), vehicle: saline with Tween-80
[4] = endpoint: median survival time, dose: 256.0 mg/kg/injection, schedule: Q01DX005 (ip), vehicle: saline with Tween-80
[5] = endpoint: mean survival time, dose: 25.0 mg/kg/injection, schedule: Q01DX009 (ip), vehicle: saline
[6] = endpoint: mean survival time, dose: 50.0 mg/kg/injection, schedule: Q01DX009 (ip), vehicle: saline
[7] = endpoint: mean survival time, dose: 100.0 mg/kg/injection, schedule: Q01DX009 (ip), vehicle: saline
[8] = endpoint: median survival time, dose: 16.0 mg/kg/injection, schedule: Q01DX005 (ip), vehicle: saline with Tween-80

## O=C1c2ccccc2C(=O)c2c(NCCNCCO)ccc(NCCNCCO)c21
endpoint: median survival time, dose: 4.0 mg/kg/injection, schedule: Q01DX009 (ip), vehicle: saline with Tween-80
  T/C: 118 % of control
endpoint: median survival time, dose: 4.0 mg/kg/injection, schedule: Q01DX009 (ip), vehicle: saline
  T/C: 102 % of control and 111 % of control
endpoint: median survival time, dose: 8.0 mg/kg/injection, schedule: Q01DX009 (ip), vehicle: saline
  T/C: 119 % of control and 102 % of control
endpoint: median survival time, dose: 16.0 mg/kg/injection, schedule: Q01DX009 (ip), vehicle: saline
  T/C: 121 % of control and 124 % of control
endpoint: median survival time, dose: 32.0 mg/kg/injection, schedule: Q01DX009 (ip), vehicle: saline with Tween-80
  T/C: 97 % of control
endpoint: median survival time, dose: 32.0 mg/kg/injection, schedule: Q01DX009 (ip), vehicle: saline
  T/C: 103 % of control

## CC(=O)OC1(C)CC(C)C(=O)C(C(O)CC2CC(=O)NC(=O)C2)C1 (stereo not drawn)
endpoint: mean survival time, dose: 0.04 mg/kg/injection, schedule: Q01DX009 (ip), vehicle: saline
  T/C: 101 % of control
endpoint: mean survival time, dose: 0.06 mg/kg/injection, schedule: Q01DX009 (ip), vehicle: saline
  T/C: 101 % of control
endpoint: mean survival time, dose: 0.13 mg/kg/injection, schedule: Q01DX009 (ip), vehicle: saline
  T/C: 108 % of control
endpoint: mean survival time, dose: 0.25 mg/kg/injection, schedule: Q01DX009 (ip), vehicle: saline
  T/C: 111 % of control
endpoint: mean survival time, dose: 0.5 mg/kg/injection, schedule: Q01DX009 (ip), vehicle: saline
  T/C: 105 % of control

## Nc1nc(=S)c2ncn(C3CC(O)C(CO)O3)c2[nH]1 (stereo not drawn)
endpoint: mean survival time, dose: 2.5 mg/kg/injection, schedule: Q01DX001 (ip), vehicle: steriod suspending solution
  T/C: 114 % of control
endpoint: mean survival time, dose: 10.0 mg/kg/injection, schedule: Q01DX001 (ip), vehicle: steriod suspending solution
  T/C: 118 % of control
endpoint: mean survival time, dose: 20.0 mg/kg/injection, schedule: Q01DX001 (ip), vehicle: steriod suspending solution
  T/C: 120 % of control

## Cc1c2ccncc2c(C)c2c1[nH]c1ccccc12
endpoint: mean survival time, dose: 10.0 mg/kg/injection, schedule: Q01DX009 (ip), vehicle: saline
  T/C: 157 % of control
endpoint: mean survival time, dose: 20.0 mg/kg/injection, schedule: Q01DX009 (ip), vehicle: saline
  T/C: 157 % of control

## CN(CCO)/N=N/c1nc[nH]c1C(N)=O
[1]
  T/C: 107 % of control
[2]
  T/C: 106 % of control
[3]
  T/C: 109 % of control
[4]
  T/C: 119 % of control

## N[C@@H](Cc1ccc(N(CCCl)CCCl)cc1)C(=O)O
endpoint: mean survival time, dose: 1.25 mg/kg/injection, schedule: Q01DX009 (ip), vehicle: saline
  T/C: 116 % of control
endpoint: mean survival time, dose: 2.5 mg/kg/injection, schedule: Q01DX009 (ip), vehicle: saline
  T/C: 120 % of control

## CCCCN(C)N=Nc1ccc([N+](=O)[O-])cc1C(N)=O
endpoint: mean survival time, dose: 100.0 mg/kg/injection, schedule: Q01DX009 (ip), vehicle: saline with Tween-80
  T/C: 112 % of control
endpoint: mean survival time, dose: 200.0 mg/kg/injection, schedule: Q01DX009 (ip), vehicle: saline with Tween-80
  T/C: 122 % of control
endpoint: mean survival time, dose: 400.0 mg/kg/injection, schedule: Q01DX009 (ip), vehicle: saline with Tween-80
  T/C: 100 % of control
endpoint: mean survival time, dose: 600.0 mg/kg/injection, schedule: Q01DX009 (ip), vehicle: saline with Tween-80
  T/C: 89 % of control
[1]
  T/C: 102 % of control
[2]
  T/C: 108 % of control
[3]
  T/C: 110 % of control
[4]
  T/C: 103 % of control

## CN(C)/N=N/c1nc[nH]c1C(N)=O
endpoint: mean survival time, dose: 20.0 mg/kg/injection, schedule: Q01DX007 (ip), vehicle: DMSO
  T/C: 100 % of control
endpoint: mean survival time, dose: 20.0 mg/kg/injection, schedule: Q01DX007 (ip), vehicle: other
  T/C: 106 % of control
[5]
  T/C: 113 % of control
endpoint: mean survival time, dose: 40.0 mg/kg/injection, schedule: Q01DX007 (ip), vehicle: DMSO
  T/C: 103 % of control
endpoint: mean survival time, dose: 40.0 mg/kg/injection, schedule: Q01DX007 (ip), vehicle: other
  T/C: 106 % of control
[6]
  T/C: 111 % of control
endpoint: mean survival time, dose: 80.0 mg/kg/injection, schedule: Q01DX007 (ip), vehicle: DMSO
  T/C: 116 % of control
endpoint: mean survival time, dose: 80.0 mg/kg/injection, schedule: Q01DX007 (ip), vehicle: other
  T/C: 107 % of control
[7]
  T/C: 111 % of control
endpoint: mean survival time, dose: 160.0 mg/kg/injection, schedule: Q01DX007 (ip), vehicle: DMSO
  T/C: 121 % of control
endpoint: mean survival time, dose: 160.0 mg/kg/injection, schedule: Q01DX007 (ip), vehicle: other
  T/C: 121 % of control
endpoint: mean survival time, dose: 320.0 mg/kg/injection, schedule: Q01DX007 (ip), vehicle: DMSO
  T/C: 103 % of control
endpoint: mean survival time, dose: 320.0 mg/kg/injection, schedule: Q01DX007 (ip), vehicle: other
  T/C: 112 % of control
[8]
  T/C: 104 % of control
[1]
  T/C: 120 % of control
[2]
  T/C: 110 % of control
[3]
  T/C: 113 % of control

## CC1CC(C)/C(=N/NC(N)=S)C(C(O)CC2CC(=O)NC(=O)C2)C1 (stereo not drawn)
[5]
  T/C: 101 % of control
[6]
  T/C: 100 % of control
[7]
  T/C: 105 % of control
endpoint: mean survival time, dose: 200.0 mg/kg/injection, schedule: Q01DX009 (ip), vehicle: saline
  T/C: 106 % of control
endpoint: mean survival time, dose: 400.0 mg/kg/injection, schedule: Q01DX009 (ip), vehicle: saline
  T/C: 101 % of control

## CS(C)=O
endpoint: median survival time, dose: 1000.0 mg/kg/injection, schedule: Q01DX005 (ip), vehicle: saline
  T/C: 101 % of control and 106 % of control
endpoint: median survival time, dose: 1.5 grams/kg/injection, schedule: Q01DX009 (ip), vehicle: saline
  T/C: 104 % of control
endpoint: median survival time, dose: 2000.0 mg/kg/injection, schedule: Q01DX005 (ip), vehicle: saline
  T/C: 98 % of control and 102 % of control
endpoint: median survival time, dose: 3.0 grams/kg/injection, schedule: Q01DX009 (ip), vehicle: saline
  T/C: 102 % of control
endpoint: median survival time, dose: 4000.0 mg/kg/injection, schedule: Q01DX005 (ip), vehicle: saline
  T/C: 98 % of control and 102 % of control
endpoint: median survival time, dose: 6.0 grams/kg/injection, schedule: Q01DX009 (ip), vehicle: saline
  T/C: 104 % of control and 107 % of control
endpoint: median survival time, dose: 8000.0 mg/kg/injection, schedule: Q01DX005 (ip), vehicle: saline
  T/C: 118 % of control and 107 % of control

## CCCN(C)C(=O)N(CCCl)N=O
endpoint: median survival time, dose: 15.6 mg/kg/injection, schedule: Q01DX001 (ip), vehicle: DMSO
  T/C: 166 % of control
endpoint: median survival time, dose: 15.6 mg/kg/injection, schedule: Q01DX001 (oral), vehicle: saline + alcohol
  T/C: 113 % of control
endpoint: median survival time, dose: 31.3 mg/kg/injection, schedule: Q01DX001 (ip), vehicle: saline + alcohol
  T/C: 172 % of control
endpoint: median survival time, dose: 31.3 mg/kg/injection, schedule: Q01DX001 (oral), vehicle: saline + alcohol
  T/C: 154 % of control
endpoint: median survival time, dose: 62.5 mg/kg/injection, schedule: Q01DX001 (ip), vehicle: saline + alcohol
  T/C: 389 % of control
endpoint: median survival time, dose: 62.5 mg/kg/injection, schedule: Q01DX001 (oral), vehicle: saline + alcohol
  T/C: 271 % of control
endpoint: median survival time, dose: 125.0 mg/kg/injection, schedule: Q01DX001 (ip), vehicle: saline + alcohol
  T/C: 198 % of control
endpoint: median survival time, dose: 125.0 mg/kg/injection, schedule: Q01DX001 (oral), vehicle: saline + alcohol
  T/C: 490 % of control
endpoint: median survival time, dose: 250.0 mg/kg/injection, schedule: Q01DX001 (ip), vehicle: DMSO
  T/C: 169 % of control
endpoint: median survival time, dose: 250.0 mg/kg/injection, schedule: Q01DX001 (ip), vehicle: saline + alcohol
  T/C: 116 % of control
endpoint: median survival time, dose: 250.0 mg/kg/injection, schedule: Q01DX001 (oral), vehicle: saline + alcohol
  T/C: 97 % of control

## CN(C)N=Nc1ccc(C(N)=O)cc1
endpoint: median survival time, dose: 8.0 mg/kg/injection, schedule: Q01DX005 (ip), vehicle: saline with Tween-80
  T/C: 104 % of control
[8]
  T/C: 113 % of control
[1]
  T/C: 121 % of control
[3]
  T/C: 106 % of control

## O=NN(CCCl)C(=O)NC1CCCCC1
endpoint: median survival time, dose: 4.0 mg/kg/injection, schedule: Q01DX001 (ip), vehicle: other
  T/C: 112 % of control
endpoint: median survival time, dose: 8.0 mg/kg/injection, schedule: Q01DX001 (ip), vehicle: saline + alcohol
  T/C: 106 % of control
endpoint: median survival time, dose: 16.0 mg/kg/injection, schedule: Q01DX001 (ip), vehicle: other
  T/C: 177 % of control
endpoint: median survival time, dose: 16.0 mg/kg/injection, schedule: Q01DX001 (ip), vehicle: saline + alcohol
  T/C: 118 % of control
endpoint: median survival time, dose: 32.0 mg/kg/injection, schedule: Q01DX001 (ip), vehicle: other
  T/C: 415 % of control
endpoint: median survival time, dose: 64.0 mg/kg/injection, schedule: Q01DX001 (ip), vehicle: saline + alcohol
  T/C: 389 % of control
endpoint: median survival time, dose: 128.0 mg/kg/injection, schedule: Q01DX001 (ip), vehicle: saline + alcohol
  T/C: 168 % of control
endpoint: median survival time, dose: 256.0 mg/kg/injection, schedule: Q01DX001 (ip), vehicle: saline + alcohol
  T/C: 90 % of control

## CCCCCCCCCCCCCCCCCC(=O)Nc1ccn(C2OC(CO)C(O)C2O)c(=O)n1 (stereo not drawn)
endpoint: median survival time, dose: 25.0 mg/kg/injection, schedule: Q01DX009 (ip), vehicle: saline with Tween-80
  T/C: 188 % of control
endpoint: median survival time, dose: 100.0 mg/kg/injection, schedule: Q01DX009 (ip), vehicle: saline with Tween-80
  T/C: 121 % of control

## CC1(C)N=C(N)N=C(N)N1c1ccc(CCC(=O)Nc2ccc(S(=O)(=O)F)cc2)c(Cl)c1
endpoint: mean survival time, dose: 6.25 mg/kg/injection, schedule: Q01DX009 (ip), vehicle: saline
  T/C: 94 % of control
endpoint: mean survival time, dose: 12.5 mg/kg/injection, schedule: Q01DX009 (ip), vehicle: saline
  T/C: 94 % of control
[5]
  T/C: 94 % of control
[6]
  T/C: 98 % of control
